Data taken from patent publication US8003613B2, “Methods and compositions for inducing apoptosis” (University of Florida Research Foundation, Inc., priority 2003, dated 2011).
Like-named read-outs stand apart in the source and are kept apart here. Where no end group is shown, it is not given here.

Tests used:
VEGFR-3 = conditions: no method given; cited from earlier work
cancer cells = assay: Apoptosis in cancer cell lines; type: cell-based, human; conditions: different cancer cell lines
Protocol: (§1) Visualization and penetration of Peptide-35 into breast cancer cells was accomplished by coupling the peptide to FITC and using a TAT penetration sequence. Apoptosis was measured using the Elisa Plus cell death detection assay after cells were treated with drug for 24 hours. Apoptosis was further confirmed by the Hoechst assay.
(§2) Cells were treated with drug for 24 hours and then harvested. Hoechst 33342 was added and the specimens were mounted on glass coverslips. The slides were viewed under the microscope for apoptotic nuclei. The percent apoptosis was calculated by dividing the number of apoptotic cells by the total number of cells (300).

[1] = test system: BT474, BT20, and MCF7 breast cancer cells; assay: Displacement of FAK from focal adhesions, rounding and detachment in breast cancer cells; type: cell-based, human; conditions: peptide coupled to TAT-FITC
Protocol: as §1
(§3) Peptide-35 and AV3 (SEQ ID NO: 3) were coupled to a TAT sequence (YGRKKRRQRRR; SEQ ID NO: 5) to allow cellular penetration. Peptide-35 was also coupled to FITC for visualization of the peptide inside cells. Anti-FAK, anti-GST, anti-VEGFR-3, and anti-tubulin antibodies were used for immunoprecipitation and western blotting.
(§4) Cells were plated onto coverslips in six-well culture plates in medium for 24 hours and stained with anti-FAK and anti-VEGFR-3 antibodies and visualized for co-localization.

[2] = test system: MCF10A normal breast cells; assay: Detachment assay, MCF10A; type: cell-based, human; conditions: 6 hours treatment
Protocol: (§5) Detached and attached cells after drug treatment for 6 hours cells were counted by hemocytometer. The percent detachment was calculated by dividing the number of detached cells by the total number of cells.

[3] = test system: MCF10A normal breast cells; assay: Apoptosis assay, MCF10A; type: cell-based, human
Protocol: as §1, §2

FAK-CD = target: T1, FAK-CD (Homo sapiens, UniProt Q05397); assay: Phage display / phage overlay binding to FAK-CD; conditions: Western blot/phage overlay
T1 construct: made in house
T1 sequence (Q05397 693-1052 limits assumed): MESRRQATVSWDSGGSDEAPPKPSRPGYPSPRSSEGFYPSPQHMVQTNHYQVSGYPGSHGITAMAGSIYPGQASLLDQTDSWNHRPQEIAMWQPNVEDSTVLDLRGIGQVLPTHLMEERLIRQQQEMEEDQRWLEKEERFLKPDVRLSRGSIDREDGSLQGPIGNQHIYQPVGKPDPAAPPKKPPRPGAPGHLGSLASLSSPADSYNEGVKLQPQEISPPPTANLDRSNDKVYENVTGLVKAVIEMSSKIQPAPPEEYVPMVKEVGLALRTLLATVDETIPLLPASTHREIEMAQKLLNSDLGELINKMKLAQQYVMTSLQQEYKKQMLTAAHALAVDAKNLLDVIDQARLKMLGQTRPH
Excerpt: Peptides that bind FAK were isolated by phage display techniques. Baculovirus FAK-CD was the target protein and peptides were isolated from a phage library (New England Biolabs). After three rounds of panning, recovered phages were sequenced to identify potential peptides that bind FAK. Western-blot analysis and phage overlay were used to confirm the binding of these peptides to FAK. Peptide binding partners to FAK-CD were isolated by phage display. Baculoviral FAK-CD was used as a target and was coated to a plate and peptides were isolated from a phage library containing different 12-amino acids (New England Biolabs). After three rounds of panning, recovered phages were sequenced to identify potential peptides that bind FAK. […] Pure protein (4 μg) with loading buffer was boiled for 10 min and resolved by SDS-PAGE. Proteins were transferred to polyvinylidene difluoride membrane, probed with phage-35, and detected by chemiluminescence (Perkin-Elmer Life Sciences, Inc.).

[4] = test system: BT474 breast cancer cells; assay: Detachment assay, BT474; type: cell-based, human; conditions: 6 hours treatment
Protocol: as §5

normal MCF10A cells = assay: Displacement of FAK from focal adhesions, rounding and detachment in normal breast cells; type: cell-based, human; conditions: peptide coupled to TAT-FITC
Protocol: as §1, §3, §4

[5] = test system: BT474 breast cancer cells; assay: Apoptosis assay, BT474; type: cell-based, human; conditions: 24 hours treatment, confirmed by Hoechst assay
Protocol: as §1, §2

IMR neuroblastoma cells [6] = assay: Apoptosis assay, IMR neuroblastoma; type: cell-based; conditions: IMR neuroblastoma cells with high VEGFR-3; peptide conjugated with TAT
Protocol: as §2

IMR neuroblastoma cells [7] = assay: Detachment assay, IMR neuroblastoma; type: cell-based; conditions: IMR neuroblastoma cells with high VEGFR-3; peptide conjugated with TAT
Protocol: as §5

[8] = target: T2, chicken FAT, FAK C-terminal domain (Gallus gallus, UniProt Q00944); assay: NMR analysis of peptide binding to FAT domain; conditions: preliminary NMR analysis
T2 sequence (Q00944 915-1046 limits assumed): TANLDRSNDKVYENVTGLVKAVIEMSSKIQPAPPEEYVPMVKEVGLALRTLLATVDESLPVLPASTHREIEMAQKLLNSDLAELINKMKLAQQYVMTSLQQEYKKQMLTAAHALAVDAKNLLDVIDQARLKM
Protocol: Structural analysis of VEGFR-3 peptide binding to the FAT domain of FAK is performed. Structural analysis is by nuclear magnetic resonance (NMR) spectroscopy. The solvent accessible area of the FAT-domain is predominantly hydrophilic with hydrophobic patches located on the helix 1-helix 4 face and the helix 2-helix 3 face. The hydrophobic patches may be involved in paxillin binding interactions. Results from these analyses indicate that NMR approaches will be successful in delineating detailed binding interactions between the inhibitor peptide and the FAT domain.
The site of peptide binding and is determined and specificity of binding is analyzed. Different scrambled peptides are synthesized to analyze the specificity of NMR assay. Different mutant peptides are synthesized to determine specific amino-acids involved in this interaction.

[9] = test system: Mouse Fibroblast, FAK/FAK+; assay: Detachment assay, mouse fibroblasts; type: cell-based; conditions: FAK+ compared with FAK-deficient
Protocol: BT474 cells were maintained in RPMI 1640 with 10% fetal bovine serum, 10 μg/ml insulin, and 2 mM L-glutamine. Mouse embryonic fibroblasts were maintained in DMEM with 10% FBS, Amphotericin B, and NEAA. HEK293 human embryonic kidney cells were maintained in DMEM with 10% FBS, and 2 mM L-glutamine. All cells were incubated at 37° C. in 5% CO2. Detached and attached cells after drug treatment for 6 hours cells were counted by hemocytometer. The percent detachment was calculated by dividing the number of detached cells by the total number of cells.

## CC(C)(C)n1nc(-c2ccc(Cl)cc2)c2c(N)ncnc21 [PP2]
VEGFR-3
  inhibition of VEGFR-3 phosphorylation: inhibited

## HPWQWTISWPQW (listed as Homo sapiens) [scrambled peptide 35, control peptide, scrambled peptide 35, reference compound]
Cancer cells
  apoptosis (with detachment / loss of focal adhesions) in cancer cells: not observed
[1]
  displacement of FAK from focal adhesions, degradation of FAK, rounding, detachment: not
[2]
  detachment: minimal detachment

## WHWQWTPWSIQP (also: TAT and FITC conjugated; listed as Homo sapiens) [Peptide-35, coupled to TAT (and FITC) for cell penetration]
Cancer cells
  apoptosis (with detachment / loss of focal adhesions) in cancer cells: caused loss of focal adhesions and apoptosis
Cancer cells; listed as peptide 35
  apoptosis (with detachment / loss of focal adhesions) in cancer cells: induces detachment and apoptosis
[3]
  apoptosis: not in MCF10A normal breast cells
[3]; listed as peptide 35
  apoptosis: not observed
FAK-CD
  binding to FAK-CD (C-terminal part of FAK): binds to specific sequences of FAK-CD
FAK-CD; listed as peptide 35
  binding to FAK-CD (C-terminal part of FAK): binds to the C-terminal part of FAK and FAT domain
[4]
  detachment: caused detachment
[4]; listed as peptide-35
  detachment: higher level of detachment
[1]
  displacement of FAK from focal adhesions, degradation of FAK, rounding, detachment: cause displacement of FAK from focal adhesions, degradation of FAK, rounding, and detachment
[1]; listed as peptide-35
  displacement of FAK from focal adhesions, degradation of FAK, rounding, detachment: caused displacement of FAK from focal adhesions
Normal MCF10A cells
  displacement of FAK from focal adhesions, degradation of FAK, rounding, detachment: not in normal MCF10A cells
Normal MCF10A cells; listed as peptide-35
  displacement of FAK from focal adhesions, degradation of FAK, rounding, detachment: not in normal MCF10A breast cells
[2]
  detachment: not in MCF10A normal breast cells
[2]; listed as peptide-35
  detachment: minimal detachment
[5]
  apoptosis: caused detachment and apoptosis
[5]; listed as peptide-35
  apoptosis: higher level of apoptosis

## WHWRPWTPCKMF (also: TAT peptide conjugated; listed as Homo sapiens) [AV3, synthesized peptide homologous to twelve amino-acids of VEGFR-3; conjugated with TAT peptide for penetration into cells]
Cancer cells
  apoptosis (with detachment / loss of focal adhesions) in cancer cells: induces detachment and apoptosis
Cancer cells; listed as VEGFR-3 (AV-3) peptide
  apoptosis (with detachment / loss of focal adhesions) in cancer cells: caused apoptosis in cancer cells similar to peptide 35
IMR neuroblastoma cells [6]
  apoptosis: increased detachment and apoptosis
[3]
  apoptosis: not observed
IMR neuroblastoma cells [7]
  detachment: increased detachment
[8]
  binding to FAT domain by NMR: detected binding
[9]
  detachment: Mouse Fibroblast, FAK/FAK+. Greater
